Measurements published in patent US9012166B2, “Method for assaying histone methylation enzyme activity” (Kyushu Institute of Technology, priority 2010, dated 2015).

Target: T1, G9a (GST-mG9a) (Mus musculus, UniProt Q9Z148)
T1 sequence (Q9Z148 1-1263): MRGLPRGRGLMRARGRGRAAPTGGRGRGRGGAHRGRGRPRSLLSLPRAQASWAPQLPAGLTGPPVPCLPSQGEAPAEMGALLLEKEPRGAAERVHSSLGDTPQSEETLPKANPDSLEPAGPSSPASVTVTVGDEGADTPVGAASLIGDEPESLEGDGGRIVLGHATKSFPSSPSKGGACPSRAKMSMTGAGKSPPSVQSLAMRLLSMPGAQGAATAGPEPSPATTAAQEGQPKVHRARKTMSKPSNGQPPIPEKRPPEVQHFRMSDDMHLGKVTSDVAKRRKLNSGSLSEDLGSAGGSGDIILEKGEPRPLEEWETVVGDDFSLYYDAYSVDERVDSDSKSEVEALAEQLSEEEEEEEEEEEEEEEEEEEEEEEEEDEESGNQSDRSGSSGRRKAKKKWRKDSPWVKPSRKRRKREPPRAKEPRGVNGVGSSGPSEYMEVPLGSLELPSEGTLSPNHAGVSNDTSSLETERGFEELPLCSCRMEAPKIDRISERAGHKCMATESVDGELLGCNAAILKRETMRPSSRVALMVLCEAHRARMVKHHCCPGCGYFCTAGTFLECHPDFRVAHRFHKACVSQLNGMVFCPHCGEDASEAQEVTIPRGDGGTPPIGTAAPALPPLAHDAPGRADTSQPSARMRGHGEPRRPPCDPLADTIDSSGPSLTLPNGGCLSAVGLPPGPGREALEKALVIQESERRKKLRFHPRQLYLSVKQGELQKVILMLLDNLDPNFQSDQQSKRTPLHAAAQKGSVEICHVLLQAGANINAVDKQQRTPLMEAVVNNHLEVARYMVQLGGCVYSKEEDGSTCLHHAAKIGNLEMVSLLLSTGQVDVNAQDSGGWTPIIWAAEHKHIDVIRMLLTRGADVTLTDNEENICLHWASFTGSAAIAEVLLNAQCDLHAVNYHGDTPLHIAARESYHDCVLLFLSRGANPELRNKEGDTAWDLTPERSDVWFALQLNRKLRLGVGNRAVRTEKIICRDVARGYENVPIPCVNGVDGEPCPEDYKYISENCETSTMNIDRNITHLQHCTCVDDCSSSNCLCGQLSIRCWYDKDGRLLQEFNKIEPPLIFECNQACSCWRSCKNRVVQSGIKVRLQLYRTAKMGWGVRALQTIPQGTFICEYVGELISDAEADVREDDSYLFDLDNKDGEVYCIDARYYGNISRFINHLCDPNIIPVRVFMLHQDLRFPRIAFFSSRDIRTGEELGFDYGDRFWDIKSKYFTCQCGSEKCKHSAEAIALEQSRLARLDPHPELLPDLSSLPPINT
Assay: Assay for measuring histone methyltransferase activity using peptidyl MCA, inhibitor evaluation with G9a
Assay type: biochemical
Details: IC50 for G9a, Ac-histone H3 (1-9)-MCA
Procedure: When G9a was adopted as a histone methyltransferase, the following method was used. 10 μL of 2×HMT buffer (100 mM Tris-HCl (pH 8.5), 20 mM MgCl2, 40 mM KCl, 20 mM 2-mercaptoethanol, 500 mM sucrose), 0.4 μL of a BSA solution (150 μg/mL), 2 μL of GST-mG9a (0, 0.5 μg/μL), 1 μL of gliotoxin (any of various concentrations) and 2.6 μL of distilled water were mixed and then incubated at room temperature for 1 hour. Then, 2 μL of SAM (10 mM) and 2 μL of a peptidyl MCA (Ac-histone H3 (1-9)-MCA) solution (0.6 mM) were added thereto, which was then incubated at 37° C. for 1 hour. Thereafter, 30 μL of a trypsin solution (20 mg/mL) was added thereto, followed by incubation at 37° C. for 15 minutes. Then, the fluorescence intensity of the solution was measured at an excitation wavelength (λex) of 390 nm and a fluorescence wavelength (λem) of 460 nm. The final concentration of GST-mG9a during the measurement of fluorescence intensity was 0.05 μg/μL. The results of the assay for measuring histone methyltransferase activity are shown in the middle panel of FIG. 18.
The rate of the inhibition of methylation by gliotoxin was calculated from the results in the left panel and the middle panel of FIG. 18. Specifically, the value (%) was calculated which was obtained by dividing “a value obtained by subtracting “the fluorescence intensity of AMC when peptidase was added but gliotoxin was not added” from “the fluorescence intensity of AMC when both peptidase and gliotoxin were added”” by “a value obtained by subtracting “the fluorescence intensity of AMC when peptidase was added but gliotoxin was not added” from “the fluorescence intensity of AMC when no peptidase or gliotoxin was added”” and multiplying the resultant value by 100. The rate (%) of the inhibition of methylation by gliotoxin is shown in the right panel of FIG. 18.
Specifically, the assay for measuring histone methyltransferase activity was carried out by the same method as the method using G9a […] in Example 8 except for using S-Adenosyl-L-homocysteine (SAH) in place of gliotoxin. SAH is a by-product of the methylation reaction and is known to inhibit histone methyltransferase in a negative feedback manner. […] The rate (%) of the inhibition of methylation by SAH was calculated from the results in the left panel of FIG. 19. The results are shown in the right panel of FIG. 19.
When G9a was adopted as a histone methyltransferase, the following method was used. […] Then, the fluorescence intensity of the solution was measured at an excitation wavelength (λex) of 330 nm and a fluorescence wavelength (λem) of 380 nm or at an excitation wavelength (λex) of 390 nm and a fluorescence wavelength (λem) of 460 nm. The final concentration of GST-mG9a during the measurement of fluorescence intensity was 0 μg/μL or 0.05 μg/μL.

SMILES: CN1C(=O)[C@]23CC4=CC=C[C@H](O)[C@H]4N2C(=O)[C@@]1(CO)SS3 [gliotoxin]
- IC50 (Example 8, AMC fluorescence λex 390 nm/λem 460 nm, FIG. 18): 2.8 µM
- IC50 (Example 14, AMC fluorescence λex 390 nm/λem 460 nm, left panel of FIG. 27): 1.8 µM
- IC50 (Example 14, peptidyl MCA fluorescence λex 330 nm/λem 380 nm, right panel of FIG. 27): 2.8 µM
